Results taken from PubChem BioAssay AID1918937 (Molecular Pharmacology Branch, DTP, NCI, 2023).
pIC50: −log10 of the molar value. Where “and” joins values, the source holds several entries; their conditions need not be identical. Equal entries are not always repeated. Blank lines part the entries; values can stand above or below the compound they belong to.

Test system: 521955-158-R2-J5-PDC complex spheroid viability
Test: Anticancer human tumor 521955-158-R2-J5-PDC patient-derived pancreatic carcinoma cell line growth inhibition
Details: for viability, T/C: stronger effect = lower value
Procedure, shortened: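 Drug combinations with the LSD1 inhibitor iadademstat tested on tumor cells co-cultured as spheroids with endothelial cells and mesenchymal stem cells. Concentrations descended in half-log increments from clinical Cmax or 10 microM.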
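Further: spheroids exposed to agents for seven days.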
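Wherever viability, T/C is given: percent of DMSO vehicle control luminescence viability.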

Compound: CC[C@@]1(O)C(=O)OCc2c1cc1n(c2=O)Cc2cc3c(CN(C)C)c(O)ccc3nc2-1 + NC1CC1c1ccc(-c2cccc(O)c2)cc1
pIC50 (curve of first compound, second compound 0.1 µM): 8.22
pIC50 (curve of first compound, second compound 0.316 µM): 8.18
pIC50 (curve of first compound, second compound 1 µM): 8.21
pIC50 (curve of first compound, second compound 3.16 µM): 8.21
pIC50 (curve of first compound, second compound 10 µM): 8.20
viability, T/C (second compound 0.1 µM, first compound 0.000316 µM): 97.3%
viability, T/C (second compound 0.1 µM, first compound 0.001 µM): 106%
viability, T/C (second compound 0.1 µM, first compound 0.00316 µM): 77.3%
viability, T/C (second compound 0.1 µM, first compound 0.01 µM): 28.3%
viability, T/C (second compound 0.1 µM, first compound 0.0316 µM): 15.6%
viability, T/C (second compound 0.1 µM, first compound 0.1 µM): 11.7%
viability, T/C (second compound 0.316 µM, first compound 0.000316 µM): 94.8%
viability, T/C (second compound 0.316 µM, first compound 0.001 µM): 94.9%
viability, T/C (second compound 0.316 µM, first compound 0.00316 µM): 80.5%
viability, T/C (second compound 0.316 µM, first compound 0.01 µM): 33.1%
viability, T/C (second compound 0.316 µM, first compound 0.0316 µM): 14.6%
viability, T/C (second compound 0.316 µM, first compound 0.1 µM): 13.1%
viability, T/C (second compound 1 µM, first compound 0.000316 µM): 80.2%
viability, T/C (second compound 1 µM, first compound 0.001 µM): 93.3%
viability, T/C (second compound 1 µM, first compound 0.00316 µM): 78.2%
viability, T/C (second compound 1 µM, first compound 0.01 µM): 29.1%
viability, T/C (second compound 1 µM, first compound 0.0316 µM): 16.4%
viability, T/C (second compound 1 µM, first compound 0.1 µM): 12.7%
viability, T/C (second compound 3.16 µM, first compound 0.000316 µM): 83%
viability, T/C (second compound 3.16 µM, first compound 0.001 µM): 86.8%
viability, T/C (second compound 3.16 µM, first compound 0.00316 µM): 71.9%
viability, T/C (second compound 3.16 µM, first compound 0.01 µM): 33.8%
viability, T/C (second compound 3.16 µM, first compound 0.0316 µM): 18.5%
viability, T/C (second compound 3.16 µM, first compound 0.1 µM): 12.2%
viability, T/C (second compound 10 µM, first compound 0.000316 µM): 103%
viability, T/C (second compound 10 µM, first compound 0.001 µM): 92.3%
viability, T/C (second compound 10 µM, first compound 0.00316 µM): 68.7%
viability, T/C (second compound 10 µM, first compound 0.01 µM): 37.7%
viability, T/C (second compound 10 µM, first compound 0.0316 µM): 21.1%
viability, T/C (second compound 10 µM, first compound 0.1 µM): 19.7%

pIC50 (curve of compound): 7.15 and 6.82
Compound: COc1cc(C2c3cc4c(cc3C(OC3OC5COC(C)OC5C(O)C3O)C3COC(=O)C23)OCO4)cc(OC)c1O (stereo unspecified)
viability, T/C (compound 0.00949 µM): 98.3% and 103%
viability, T/C (compound 0.03 µM): 88.7% and 100%
viability, T/C (compound 0.0949 µM): 36.7% and 63.7%
viability, T/C (compound 0.3 µM): 16.6% and 28.2%
viability, T/C (compound 0.949 µM): 9.58% and 15.6%
viability, T/C (compound 3 µM): 8.64% and 9.05%

pIC50 (curve of compound): 5.59 and < 5.52
Compound: CCN(c1cc(-c2ccc(CN3CCOCC3)cc2)cc(C(=O)NCc2c(C)cc(C)[nH]c2=O)c1C)C1CCOCC1
viability, T/C (compound 0.00949 µM): 102% and 106%
viability, T/C (compound 0.03 µM): 100% and 106%
viability, T/C (compound 0.0949 µM): 98.5% and 102%
viability, T/C (compound 0.3 µM): 83.5% and 102%
viability, T/C (compound 0.949 µM): 73.1% and 87.9%
viability, T/C (compound 3 µM): 46.6% and 75%

pIC50 (curve of compound): 6.23 and 6.18
Compound: CC1COCCN1c1cc(C2(S(C)(=N)=O)CC2)nc(-c2ccnc3[nH]ccc23)n1 (stereo unspecified)
viability, T/C (compound 0.0316 µM): 108% and 112%
viability, T/C (compound 0.1 µM): 102% and 100%
viability, T/C (compound 0.316 µM): 94.3% and 111%
viability, T/C (compound 1 µM): 13.1% and 18.6%
viability, T/C (compound 3.16 µM): 9.05% and 12.5%
viability, T/C (compound 10 µM): 13.5% and 17.8%
